Source: patent publication US11903987B2, “Artificial compositions comprising corosolic acid, oleanolic acid; and ursolic acid in a form of an emulsion, salve, ointment, suspension, or gel” (National Guard Health Affairs, priority 2018, dated 2024)

Legend:
[1] = skin tolerability on tested subjects after topical application; format: in vivo, human
[2] = system: human skin warts; experiment: topical treatment of human skin warts; format: in vivo; settings: topical application
Experimental: Initial steps involved extracting Tecoma stans leaves with methanol or ethanol alcohol. Then, the extract was obtained via evaporating the alcohol and re-suspending the dry matter in pure DMSO (dimethylsulphoxide) at a concentration of 20 mg/mL DMSO. […] As disclosed herein, 14 compounds have been isolated from dry leaves of Tecoma stans, four of which are known for their antidiabetic effect and ability to reduce the glycemic index. After identifying the 14 compounds in the methanolic extract from the dry leaves, each compound was independently tested on human skin warts. […] Therefore, corosolic acid was mixed with its two related compounds, namely oleanolic acid (FIG. 1E) and ursolic acid (FIG. 1F), isolated from the same extract. Compositions containing a mixture of these three compounds were prepared by mixing the compounds in an ointment at a concentration of 1 mg/gm of each compound per a total weight of the ointment, emulsifying the compounds in a lotion base at a concentration of 0.1 mg/mL of each compound per a total volume of the lotion, or suspending three compounds together in DMSO at a concentration of 1 mg/mL of each compound per a total volume of DMSO. The compositions were applied topically twice a day to the desired skin area as indicated in each case (see FIGS. 3[…]).

For `C[C@H]1[C@H](C)CC[C@]2(C(=O)O)CC[C@]3(C)C(=CC[C@@H]4[C@@]5(C)C[C@@H](O)[C@H](O)C(C)(C)[C@@H]5CC[C@]43C)[C@H]12` [corosolic acid, (2α,3β)-2,3-dihydroxyurs-12-en-28-oic acid], which “harmlessness on humans / skin irritation” value [1] is on record?
The value was “harmless on humans, and cause no skin irritations”.

What about the “curing effect on skin warts” value [2] of the same compound?
The value was “minor curing effect”.

With `CC1(C)CC[C@]2(C(=O)O)CC[C@]3(C)C(=CC[C@@H]4[C@@]5(C)CC[C@H](O)C(C)(C)[C@@H]5CC[C@]43C)[C@@H]2C1` [oleanolic acid] as the compound, how does the “harmlessness on humans / skin irritation” value [1] read?
The value was “harmless on humans, and cause no skin irritations”.

With `C[C@H]1[C@H](C)CC[C@]2(C(=O)O)CC[C@]3(C)C(=CC[C@@H]4[C@@]5(C)CC[C@H](O)C(C)(C)[C@@H]5CC[C@]43C)[C@H]12` [ursolic acid, 3β-Hydroxy-12-ursen-28-ic acid] as the compound, how does the “harmlessness on humans / skin irritation” value [1] read?
The value was “harmless on humans, and cause no skin irritations”.
